Experimental findings from ChEMBL document CHEMBL2169824, “The many faces of the adamantyl group in drug design” (Eur J Med Chem, 2011) are described below.

Converted amounts (≈) assume the structure as drawn. Where only a bound is given, the exact number is not on record here.

For one series, the target named is Mu-type opioid receptor (Homo sapiens, UniProt P35372). Kind of series: Antagonist activity at MOR. The format is functional.
Series [1] concerns the target Delta-type opioid receptor (Homo sapiens, UniProt P41143). As to the kind of experiment: Antagonist activity at DOR. The format is functional.
A further series has as its target T1, Vitamin D3 receptor (Homo sapiens, UniProt P11473).
T1 sequence (P11473 whole entry): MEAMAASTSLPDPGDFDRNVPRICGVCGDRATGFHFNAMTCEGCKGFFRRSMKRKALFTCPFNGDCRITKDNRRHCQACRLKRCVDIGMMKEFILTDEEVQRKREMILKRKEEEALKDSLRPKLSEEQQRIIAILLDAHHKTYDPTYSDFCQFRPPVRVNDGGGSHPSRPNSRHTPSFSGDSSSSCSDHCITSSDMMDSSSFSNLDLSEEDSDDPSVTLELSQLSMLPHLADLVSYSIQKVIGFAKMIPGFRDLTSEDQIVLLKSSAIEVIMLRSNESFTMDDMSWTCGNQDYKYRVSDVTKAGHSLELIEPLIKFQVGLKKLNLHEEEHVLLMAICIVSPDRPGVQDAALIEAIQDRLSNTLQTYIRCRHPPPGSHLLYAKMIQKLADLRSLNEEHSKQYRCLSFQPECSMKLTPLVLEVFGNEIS
As to the kind of experiment: Transactivation of VDR expressed in COS7 cells assessed as reduction in 1,25-dihydroxyvitamin D3-induced transcriptional activity by transient transcription assay. It counts as cell-based, COS-7.

Series [2] in a line: Half life in plasma. The format is ADME, cell-free.
Series [3] can be described thus: Inhibition of globotriaosyl ceramide binding to Escherichia coli Verotoxin 1.
A short description of series [4]: Solubility in water. The format is physicochemical.
A short description of series [5]: Half life in human plasma. It counts as ADME, cell-free.
A short description of series [6]: Ratio of drug level in liver to blood in human. The format is ADME, tissue-based.
Series [7] can be described thus: Drug elimination in po dosed human assessed as unchanged compound level. To be noted: in vivo, read-out: Drug excretion. It counts as ADME, organism-based.
The subject of a further series is Enterococcus faecium. As to the kind of experiment: Antimicrobial activity against vancomycin-resistant Enterococcus faecium. It counts as functional.
In a further series the test system is Staphylococcus aureus. As to the kind of experiment: Antimicrobial activity against methicillin-resistant Staphylococcus aureus. The format is functional.
Series [8] can be described thus: Protein binding in plasma. It counts as ADME, cell-free. To be noted: read-out: PPB (converted).
Series [9] can be described thus: Inhibition of Beta-glucocerebrosidase G202R mutant in cell based assay.
Series [10] concerns T2, Lysosomal acid glucosylceramidase (Homo sapiens), P04062 [N409S].
T2 sequence (whole entry): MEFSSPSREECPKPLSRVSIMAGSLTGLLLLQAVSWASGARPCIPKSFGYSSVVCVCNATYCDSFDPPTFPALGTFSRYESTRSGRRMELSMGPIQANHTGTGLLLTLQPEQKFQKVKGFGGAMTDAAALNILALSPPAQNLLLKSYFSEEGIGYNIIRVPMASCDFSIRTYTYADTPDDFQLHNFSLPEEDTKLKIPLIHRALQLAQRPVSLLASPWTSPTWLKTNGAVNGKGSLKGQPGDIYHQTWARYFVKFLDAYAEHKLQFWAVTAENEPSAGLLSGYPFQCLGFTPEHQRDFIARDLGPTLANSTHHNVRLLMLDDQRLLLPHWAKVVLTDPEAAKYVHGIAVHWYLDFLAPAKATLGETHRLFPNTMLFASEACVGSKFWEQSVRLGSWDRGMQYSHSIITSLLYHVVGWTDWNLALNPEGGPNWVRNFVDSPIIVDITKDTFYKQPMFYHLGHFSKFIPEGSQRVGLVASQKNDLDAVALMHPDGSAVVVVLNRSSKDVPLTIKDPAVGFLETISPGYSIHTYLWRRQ
As to the kind of experiment: Inhibition of Beta-glucocerebrosidase N370S mutant in cell based assay.

The next series has as its system Mus musculus. As to the kind of experiment: Anticonvulsant activity in mouse at 30 mg/kg. The format is functional.
The next series addresses Carbonic anhydrase 2 (Homo sapiens, UniProt P00918). Kind of series: Inhibition of human CA2.
Series [11] is described as follows: Drug excretion in human urine assessed as unchanged compound level. The format is ADME. To be noted: read-out: Drug excretion.
The nature of series [12]: Displacement of [125I]neurotensin from neurotensin receptor 1 in guinea pig brain. More on the design: species or system Cavia porcellus. (Loss of bound radioactivity is the signal in a displacement assay; it reports binding, not function.)
Series [13] is described as follows: Volume of distribution in mouse. The format is ADME, organism-based. To be noted: in vivo.
Series [14] relates to Mycobacterium tuberculosis. As to the kind of experiment: Antimicrobial activity against Mycobacterium tuberculosis H37Rv. The format is functional.
The target of series [15] is T3, Mediator of RNA polymerase II transcription subunit 23 (Homo sapiens, UniProt Q9ULK4).
T3 sequence (Q9ULK4 whole entry): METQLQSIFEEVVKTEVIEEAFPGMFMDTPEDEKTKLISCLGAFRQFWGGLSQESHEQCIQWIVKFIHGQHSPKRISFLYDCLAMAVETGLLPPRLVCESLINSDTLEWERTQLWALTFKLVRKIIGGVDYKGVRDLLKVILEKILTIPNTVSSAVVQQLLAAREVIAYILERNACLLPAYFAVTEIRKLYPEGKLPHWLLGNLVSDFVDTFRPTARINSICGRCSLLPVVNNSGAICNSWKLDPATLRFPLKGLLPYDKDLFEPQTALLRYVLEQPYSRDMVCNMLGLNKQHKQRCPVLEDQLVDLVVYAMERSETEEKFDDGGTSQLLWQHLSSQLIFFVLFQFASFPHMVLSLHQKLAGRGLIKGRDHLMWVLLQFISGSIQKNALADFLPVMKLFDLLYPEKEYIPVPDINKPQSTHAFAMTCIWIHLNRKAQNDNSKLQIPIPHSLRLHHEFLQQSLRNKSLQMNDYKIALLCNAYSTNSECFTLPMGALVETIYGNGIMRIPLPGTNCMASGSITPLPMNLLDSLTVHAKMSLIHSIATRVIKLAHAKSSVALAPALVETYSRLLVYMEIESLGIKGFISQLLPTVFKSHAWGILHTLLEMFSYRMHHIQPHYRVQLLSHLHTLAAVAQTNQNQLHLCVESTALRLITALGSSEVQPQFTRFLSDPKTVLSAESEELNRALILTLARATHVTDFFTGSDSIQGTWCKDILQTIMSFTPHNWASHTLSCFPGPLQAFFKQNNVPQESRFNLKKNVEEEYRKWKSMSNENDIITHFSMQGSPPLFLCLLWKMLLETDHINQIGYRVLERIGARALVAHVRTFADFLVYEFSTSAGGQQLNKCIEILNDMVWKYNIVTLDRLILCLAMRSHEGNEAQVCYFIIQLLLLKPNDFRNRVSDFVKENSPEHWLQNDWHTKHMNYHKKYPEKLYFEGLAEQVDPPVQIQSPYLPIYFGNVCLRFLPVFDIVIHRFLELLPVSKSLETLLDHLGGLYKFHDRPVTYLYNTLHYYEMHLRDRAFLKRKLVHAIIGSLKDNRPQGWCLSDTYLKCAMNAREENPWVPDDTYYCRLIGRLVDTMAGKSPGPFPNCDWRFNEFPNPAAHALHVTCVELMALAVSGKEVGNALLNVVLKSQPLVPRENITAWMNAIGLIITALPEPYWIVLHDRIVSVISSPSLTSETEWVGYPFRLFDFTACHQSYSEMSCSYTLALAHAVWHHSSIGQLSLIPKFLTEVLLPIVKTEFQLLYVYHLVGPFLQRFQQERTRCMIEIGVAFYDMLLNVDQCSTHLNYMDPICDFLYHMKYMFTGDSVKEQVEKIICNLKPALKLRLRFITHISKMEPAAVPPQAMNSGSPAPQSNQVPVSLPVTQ
Kind of series: Binding affinity to Sur2.

The next series relates to HCT-116. Kind of series: Antitumor activity against human HCT116 cells xenografted in athymic mouse assessed as reduction tumor size at 20 mg/kg, qd. The format is functional. More on the design: scale not given: the % may be the effect or the level left. In general terms: A xenograft is tissue or cells of one species grown in another, often human tumour cells in immunodeficient mice.

Chain of Delta-type opioid receptor (P41143 whole entry): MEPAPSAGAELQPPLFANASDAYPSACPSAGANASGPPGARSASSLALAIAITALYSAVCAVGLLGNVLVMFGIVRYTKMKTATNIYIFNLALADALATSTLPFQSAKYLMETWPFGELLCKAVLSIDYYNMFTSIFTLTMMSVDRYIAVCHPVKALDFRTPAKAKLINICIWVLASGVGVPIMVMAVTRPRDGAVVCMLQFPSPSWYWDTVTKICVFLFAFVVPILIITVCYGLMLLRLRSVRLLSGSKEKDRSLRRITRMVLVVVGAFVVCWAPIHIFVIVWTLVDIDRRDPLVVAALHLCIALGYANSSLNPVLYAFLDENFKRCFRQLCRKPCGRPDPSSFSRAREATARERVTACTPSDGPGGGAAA
Chain of Mu-type opioid receptor (P35372 whole entry): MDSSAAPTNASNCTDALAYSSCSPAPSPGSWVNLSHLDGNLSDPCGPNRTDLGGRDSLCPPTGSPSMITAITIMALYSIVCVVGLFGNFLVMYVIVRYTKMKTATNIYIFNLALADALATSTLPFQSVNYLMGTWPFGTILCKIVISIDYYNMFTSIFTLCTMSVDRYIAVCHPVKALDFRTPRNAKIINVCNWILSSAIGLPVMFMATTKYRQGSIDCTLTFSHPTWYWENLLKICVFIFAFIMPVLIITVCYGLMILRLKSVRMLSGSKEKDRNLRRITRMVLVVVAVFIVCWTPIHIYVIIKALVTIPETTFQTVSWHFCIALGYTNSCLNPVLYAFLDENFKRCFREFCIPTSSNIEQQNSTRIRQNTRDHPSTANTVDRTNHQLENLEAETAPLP

The Ki is a measure of affinity in units of concentration, obtained from inhibition or displacement. Consider `Cc1cc(O)cc(C)c1C[C@H](N)C(=O)N1Cc2ccccc2C[C@H]1C(=O)NC12C[C@H]3C[C@@H](C1)C[C@@H](C2)C3`, for which the results for the Ki (on Mu-type opioid receptor; in [1]) were 85.5 nM and 1.24 nM, respectively. As usually defined, the IC50 is the concentration that gives 50% inhibition. Consider `C=C1[C@H](O)CC(=C/C=C2\CCC[C@]3(C)[C@@H]([C@H](C)/C=C/C[C@H](O)CC45CC6CC(CC(C6)C4)C5)CC[C@@H]23)C[C@H]1O`, for which the IC50 on Vitamin D3 receptor stood at 3 nM. One may read the half-life as the time needed for the level to fall by half in the phase considered. Take `CC(C)NCC(O)COc1ccc(CC(=O)OCCC23CC4CC(CC(C4)C2)C3)cc1` (stereo not drawn) [ADAPROLOL]: the half-life in series [2] turned out to be 6.9 min. Turning to `CCCCCCCCCCCCC/C=C/C(O)C(CO[C@@H]1O[C@H](CO)[C@@H](O[C@@H]2O[C@H](CO)[C@H](O[C@H]3O[C@H](CO)[C@H](O)[C@H](O)[C@H]3O)[C@H](O)[C@H]2O)[C@H](O)[C@H]1O)NC(=O)CC12CC3CC(CC(C3)C1)C2` (stereo partly drawn), in series [3], the IC50 was found to be 10000 nM. In general, solubility refers to the concentration that dissolves in the medium under given conditions. In turn, `O=C(O)CCCCCCCCCCCNC(=O)NC12CC3CC(CC(C3)C1)C2` registered a solubility in series [4] of 19 µg/mL (≈ 48.4 µM). The compound `CC(=O)N(O)CCCCCNC(=O)CCC(=O)N(O)CCCCCNC(=O)CCC(=O)N(O)CCCCCN` [DEFEROXAMINE] had a half-life in series [2] of 5 min.

In [5], `CC(N)C12CC3CC(CC(C3)C1)C2` (stereo not drawn) [RIMANTADINE] gave a half-life of 1440 min. One may read the Kp as tissue or fluid exposure divided by exposure in the circulation. As for `CN(C)CCOCC(=O)NC12CC3CC(CC(C3)C1)C2` [TROMANTADINE], the Kp in [6] is 19. Besides, the dose excreted in [7] came to 30%. In general, MIC refers to the lowest concentration that inhibits growth of the organism. In the case of `CC12C[C@@]34C=CC(=O)[C@@](C)(CCC(=O)Nc5c(O)ccc(C(=O)O)c5O)C3[C@H](CC1C4)O2` (stereo partly drawn) [PLATENSIMYCIN], the MIC in the series with Enterococcus faecium and against Staphylococcus aureus was 0.2 µg/mL (≈ 0.453 µM) throughout. As for `N#C[C@@H]1C[C@@H]2C[C@@H]2N1C(=O)[C@@H](N)C12CC3CC(CC(O)(C3)C1)C2` [SAXAGLIPTIN ANHYDROUS], the fraction unbound in [8] was 0.7.

As for `O=C(CCCCCN1C[C@H](O)[C@@H](O)[C@H](O)[C@H]1CO)NC12CC3CC(CC(C3)C1)C2`, the INH in [9] and in series [10] was over 1 µM in each case. In turn, `NS(=O)(=O)c1nnc(NC(=O)NC23CC4CC(CC(C4)C2)C3)s1` returned an Activity with Mus musculus of 47%. Also, the affinity on Carbonic anhydrase 2, expressed as Ki, was 13 nM.

In turn, `NS(=O)(=O)c1nnc(NC(=O)CC23CC4CC(CC(C4)C2)C3)s1` had an Activity in the series with Mus musculus of 75%. On to `NC12CC3CC(CC(C3)C1)C2` [AMANTADINE], for which the dose excreted in series [11] amounted to 65%. As to `C[C@@]1(CCC(=O)Nc2c(O)ccc(C(=O)O)c2O)C(=O)C=CC23CC4CC(CC(C4)C21)C3` (stereo partly drawn), the MIC in the series with Enterococcus faecium and with Staphylococcus aureus was 1.3 µg/mL (≈ 2.96 µM) in each case. On to `COc1cccc(OC)c1-c1cc(C(=O)NC2(C(=O)O)C3CC4CC(C3)CC2C4)nn1-c1ccnc2cc(Cl)ccc12` (stereo not drawn) [REMINERTANT], for which the IC50 in series [12] came out at 0.99 nM.

Broadly, the Vd is a proportionality between amount in the body and measured concentration, not a real space. The compound `CC(C)=CCC/C(C)=C/CNCCNC1C2CC3CC(C2)CC1C3` (stereo not drawn) [SQ109] showed a Vd in [13] of 11.8 L/kg. For the same compound, the MIC in series [14] was found to be 1.56 µM (≈ 0.516 µg/mL).

By Kd is commonly meant the equilibrium constant for the complex coming apart. With `Cc1ccc(S(=O)(=O)n2ccc3c(OCC(O)CN(CCCCCN)C(=O)N4CCC(C5CCN(C(=O)C67CC8CC(CC(C8)C6)C7)CC5)CC4)cccc32)cc1` (stereo not drawn) [WRENCHNOLOL], binding in series [15] was put at a Kd of 1800 nM. On to `COC(=O)c1ccc(O)c(NC(=O)COc2ccc(C34CC5CC(CC(C5)C3)C4)cc2)c1`, for which the Activity in the series on HCT-116 was found to be 53%. As to `NS(=O)(=O)c1nnc(NC(=O)OC23CC4CC(CC(C4)C2)C3)s1`, the Activity in the series on Mus musculus stood at 92%. Further, the affinity at Carbonic anhydrase 2 corresponds to a Ki of 10 nM.
